Data set [1] deals with C57BL/6 mice. Kind of data set: Liver histology (H&E, PAS, Oil Red O) in fat-free high carbohydrate diet (HCD) mouse model of hepatic steatosis. In kind it is in vivo. The note with it: HCD+MAR mice, 100 mg/kg twice daily, 19 days. As to the method: Experiments were performed on 5-6 week-old C57BL/6 mice (Jackson Laboratories, Bar Harbor, Me.). The animals, in groups of five, were housed in a barrier room and were acclimated to their environment for at least 72 hours prior to the initiation of each experiment. Animal protocols complied with the NIH Animal Research Advisory Committee guidelines and were approved by the Children's Hospital Boston Animal Care and Use Committee. Control animals (n=5) received normal chow and water ad libitum. All animals in the experimental groups were fed a fat-free, high carbohydrate liquid diet (HCD) ad libitum placed in one bottle per cage as previously described (3, 62). No additional sources of nutrition or hydration were provided. The HCD liquid solution contained 20% dextrose, a commercial mixture of 2% essential and nonessential amino acids (TrophAmine, B. Braun Medical, Irvine, Calif.), 2 ml trace elements (Trace Elements Injection 4, USP-Pediatric, American Regent Shirley, N.Y.), and 5 ml multivitamins (M.V.I. PediatricTM, Mayne Pharma, Paramus, N.J.). Each liter of HCD contained 30 meq sodium, 20 meq potassium chloride, 15 meq calcium, 10 meq magnesium, and 10 mM phosphate. The bottles were replaced daily with fresh HCD solution. HCD animals (n=5) received HCD only and no additional treatment for 19 days. The HCD+MAR animals (n=15) additionally received 100 mg/kg of MarimastatTM in 0.45% methylcellulose (Sigma-Aldrich Corporation, St. Louis, Mo.) vehicle twice daily via orogastric gavage. The animals were individually weighed every third day and at sacrifice. We then performed a midline laparotomy to observe, excise, and weigh the liver. Approximately one half of the liver was fixed in 10% formalin at 4° C. overnight, washed with phosphate buffered saline, and then embedded in paraffin. After cutting 5 μm sections, slides were stained at the Department of Pathology, Children's Hospital Boston with H&E to examine cellular architecture and lipid accumulation, and with periodic acid-Schiff (PAS) to identify the presence of glycogen. Another portion of the liver was collected as frozen sections, placed in embedding medium (Optimal Cutting Temperature OCT, […], Torrance, Calif.), and immersed in cold 2-methylbutane (Aldrich, Milwaukee, Wis.) on dry ice. The samples were stored at […]. Sections were stained at the Department of Pathology, Children's Hospital Boston with Oil Red O to detect fat.

For data set [2], the system named is C57BL/6 mice. Kind of data set: MR spectroscopy of percentage liver fat content in HCD mouse model. It is filed as in vivo. The note with it: HCD+MAR mice, 100 mg/kg twice daily orogastric gavage, 19 days; mean±SEM; P<0.05 vs HCD-only (24.1±1.7%). As to the method: Experiments were performed on 5-6 week-old C57BL/6 mice (Jackson Laboratories, Bar Harbor, Me.). The animals, in groups of five, were housed in a barrier room and were acclimated to their environment for at least 72 hours prior to the initiation of each experiment. Animal protocols complied with the NIH Animal Research Advisory Committee guidelines and were approved by the Children's Hospital Boston Animal Care and Use Committee. Control animals (n=5) received normal chow and water ad libitum. All animals in the experimental groups were fed a fat-free, high carbohydrate liquid diet (HCD) ad libitum placed in one bottle per cage as previously described (3, 62). No additional sources of nutrition or hydration were provided. […] Three 2 mm thick slices were imaged for each sample and the saturation recovery curves were generated from signal intensities measured in identically sized regions of interest within a given slice. […] Spectra were obtained following Fourier transformation and phasing, and percent fat content was determined relative to water by numerical integration of the areas under the lipid and water peaks by an independent blinded reviewer.

Turning to `CNC(=O)[C@@H](NC(=O)[C@H](CC(C)C)[C@H](O)C(=O)NO)C(C)(C)C` [Marimastat], in data set [1], the “H&E inflammatory changes / necrosis” value was “occasional focal cellular infiltrates consistent with focal necrosis”; the “Oil Red O staining (fat in liver)” value is recorded as “minimal presence of fat”; the “PAS staining (glycogen storage)” value is “highly positive, granular, and widespread”; the “steatosis on H&E sections” value was “No definitive steatosis”. For the same compound, the “liver fat content by MR spectroscopy” value in data set [2] is 8.1±1.2%.

The values are drawn from patent US7897591B2, “Method of treating fatty liver disease” (priority 2005, dated 2011).
